Measured values taken from US4868156A, “Pharmaceutical preparation containing a dipeptide with cell growth regulating effect” (Bio-Tech A/S, priority 1986, dated 1989).
Non-standard residues stand in square brackets, D forms with d. No end group written: not given here. pGlu = O=C1CC[C@@H](C(=O)O)N1

Test system: mouse epidermal mitotic rate
Assay: change in mouse epidermal mitotic rate after intraperitoneal injection (Colcemid method)
Assay type: in vivo
Settings: 10^-13 moles of peptide injected per mouse, first three hours after injection, versus control animals from the same cage
Description: In the following Table 1 the in vivo result (change in mouse epidermal mitotic rate) has been described as an example for one of the dipeptides. The epidermal mitotic rate was measured for the first three hours after intraperitoneal injection of the dipeptide. Mitotic rate was determined by means of "Colcemid". A reduced rate was determined as a percentage in comparison with control animals from the same cage.

[pGlu]-Gly
Decrease in mitotic rate: 40%
